Where two headings read alike, the source gives them in different places.

Common to all, as to assay type: binding
Test [1] has as its target T1, HeLa cell extract proteins (Homo sapiens, UniProt P62495).
T1 construct: endogenous in cells; host or cells: HeLa cell extract
The conditions noted are these: protein ETF1; HeLa.

Test [2] deals with T2, HeLa cell extract proteins (Homo sapiens, UniProt P10619).
T2 construct: endogenous in cells; host or cells: HeLa cell extract
T2 sequence (P10619 29-480): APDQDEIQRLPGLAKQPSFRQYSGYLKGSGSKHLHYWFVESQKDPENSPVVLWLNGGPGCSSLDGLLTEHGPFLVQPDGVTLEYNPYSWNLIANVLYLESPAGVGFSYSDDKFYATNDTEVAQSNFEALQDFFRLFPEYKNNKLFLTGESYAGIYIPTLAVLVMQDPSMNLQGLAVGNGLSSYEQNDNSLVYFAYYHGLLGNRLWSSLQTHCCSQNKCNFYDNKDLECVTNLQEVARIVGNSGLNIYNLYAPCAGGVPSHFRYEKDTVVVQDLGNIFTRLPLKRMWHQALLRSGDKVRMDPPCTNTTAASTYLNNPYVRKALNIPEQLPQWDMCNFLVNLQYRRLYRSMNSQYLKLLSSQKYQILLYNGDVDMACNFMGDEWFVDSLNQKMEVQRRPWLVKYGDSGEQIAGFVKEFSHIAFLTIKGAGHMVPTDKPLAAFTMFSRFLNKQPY

The target in test [3] is T3, HeLa cell extract proteins (Homo sapiens, UniProt P26640).
T3 construct: endogenous in cells; host or cells: HeLa cell extract
T3 sequence (P26640 1-1264): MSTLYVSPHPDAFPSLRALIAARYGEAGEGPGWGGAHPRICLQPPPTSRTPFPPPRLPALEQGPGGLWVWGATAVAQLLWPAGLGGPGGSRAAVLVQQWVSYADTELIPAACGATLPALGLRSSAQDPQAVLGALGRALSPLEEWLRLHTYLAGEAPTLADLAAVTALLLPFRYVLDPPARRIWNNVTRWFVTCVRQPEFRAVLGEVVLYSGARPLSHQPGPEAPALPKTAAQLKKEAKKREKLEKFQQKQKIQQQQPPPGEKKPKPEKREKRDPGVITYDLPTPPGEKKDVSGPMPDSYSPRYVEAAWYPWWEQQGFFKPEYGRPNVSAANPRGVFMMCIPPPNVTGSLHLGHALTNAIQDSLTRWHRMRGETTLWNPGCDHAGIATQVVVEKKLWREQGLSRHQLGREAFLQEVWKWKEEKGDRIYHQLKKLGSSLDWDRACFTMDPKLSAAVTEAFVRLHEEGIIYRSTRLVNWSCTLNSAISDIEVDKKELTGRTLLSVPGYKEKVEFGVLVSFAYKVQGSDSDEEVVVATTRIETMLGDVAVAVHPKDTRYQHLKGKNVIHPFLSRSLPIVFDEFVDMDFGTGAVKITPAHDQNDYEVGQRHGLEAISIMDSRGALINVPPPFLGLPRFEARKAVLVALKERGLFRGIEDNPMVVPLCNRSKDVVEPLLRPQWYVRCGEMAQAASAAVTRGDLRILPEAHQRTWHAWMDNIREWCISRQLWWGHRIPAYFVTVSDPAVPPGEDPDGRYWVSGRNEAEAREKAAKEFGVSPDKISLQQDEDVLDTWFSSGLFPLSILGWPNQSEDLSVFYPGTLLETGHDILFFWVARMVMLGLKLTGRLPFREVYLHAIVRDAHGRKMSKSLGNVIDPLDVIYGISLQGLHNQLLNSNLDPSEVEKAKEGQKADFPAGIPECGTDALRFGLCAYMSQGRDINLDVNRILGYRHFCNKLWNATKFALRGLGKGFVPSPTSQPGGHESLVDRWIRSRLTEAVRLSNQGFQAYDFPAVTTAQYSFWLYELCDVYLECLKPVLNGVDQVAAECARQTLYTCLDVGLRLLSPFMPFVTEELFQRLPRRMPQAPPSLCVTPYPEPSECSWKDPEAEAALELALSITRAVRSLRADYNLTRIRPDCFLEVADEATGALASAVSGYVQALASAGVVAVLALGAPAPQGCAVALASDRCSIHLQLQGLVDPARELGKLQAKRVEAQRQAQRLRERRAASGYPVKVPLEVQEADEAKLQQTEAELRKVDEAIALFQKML

Test [4] has as its target T4, HeLa cell extract proteins (Homo sapiens, UniProt P30837).
T4 construct: endogenous in cells; host or cells: HeLa cell extract
T4 sequence (P30837 18-517): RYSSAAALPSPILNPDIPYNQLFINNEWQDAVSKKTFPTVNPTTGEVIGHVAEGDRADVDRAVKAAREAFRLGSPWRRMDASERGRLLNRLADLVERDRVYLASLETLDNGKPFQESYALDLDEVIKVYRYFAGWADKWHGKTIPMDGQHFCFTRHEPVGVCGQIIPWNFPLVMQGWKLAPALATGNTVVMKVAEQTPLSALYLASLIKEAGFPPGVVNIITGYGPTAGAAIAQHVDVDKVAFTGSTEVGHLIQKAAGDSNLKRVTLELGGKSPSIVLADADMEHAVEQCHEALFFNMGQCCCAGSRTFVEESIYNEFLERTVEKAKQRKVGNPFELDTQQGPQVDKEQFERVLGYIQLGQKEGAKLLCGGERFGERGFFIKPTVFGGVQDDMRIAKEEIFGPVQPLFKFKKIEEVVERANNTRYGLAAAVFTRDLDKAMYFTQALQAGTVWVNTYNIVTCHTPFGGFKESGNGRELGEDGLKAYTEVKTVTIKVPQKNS

Test [5] has as its target T5, HeLa cell extract proteins (Homo sapiens, UniProt Q93008).
T5 construct: endogenous in cells; host or cells: HeLa cell extract

The target in test [6] is T6, HeLa cell extract proteins (Homo sapiens, UniProt Q9H4A4).
T6 construct: endogenous in cells; host or cells: HeLa cell extract

The target of test [7] is T7, HeLa cell extract proteins (Homo sapiens, UniProt Q9UPU5).
T7 construct: endogenous in cells; host or cells: HeLa cell extract
T7 sequence (Q9UPU5 whole entry): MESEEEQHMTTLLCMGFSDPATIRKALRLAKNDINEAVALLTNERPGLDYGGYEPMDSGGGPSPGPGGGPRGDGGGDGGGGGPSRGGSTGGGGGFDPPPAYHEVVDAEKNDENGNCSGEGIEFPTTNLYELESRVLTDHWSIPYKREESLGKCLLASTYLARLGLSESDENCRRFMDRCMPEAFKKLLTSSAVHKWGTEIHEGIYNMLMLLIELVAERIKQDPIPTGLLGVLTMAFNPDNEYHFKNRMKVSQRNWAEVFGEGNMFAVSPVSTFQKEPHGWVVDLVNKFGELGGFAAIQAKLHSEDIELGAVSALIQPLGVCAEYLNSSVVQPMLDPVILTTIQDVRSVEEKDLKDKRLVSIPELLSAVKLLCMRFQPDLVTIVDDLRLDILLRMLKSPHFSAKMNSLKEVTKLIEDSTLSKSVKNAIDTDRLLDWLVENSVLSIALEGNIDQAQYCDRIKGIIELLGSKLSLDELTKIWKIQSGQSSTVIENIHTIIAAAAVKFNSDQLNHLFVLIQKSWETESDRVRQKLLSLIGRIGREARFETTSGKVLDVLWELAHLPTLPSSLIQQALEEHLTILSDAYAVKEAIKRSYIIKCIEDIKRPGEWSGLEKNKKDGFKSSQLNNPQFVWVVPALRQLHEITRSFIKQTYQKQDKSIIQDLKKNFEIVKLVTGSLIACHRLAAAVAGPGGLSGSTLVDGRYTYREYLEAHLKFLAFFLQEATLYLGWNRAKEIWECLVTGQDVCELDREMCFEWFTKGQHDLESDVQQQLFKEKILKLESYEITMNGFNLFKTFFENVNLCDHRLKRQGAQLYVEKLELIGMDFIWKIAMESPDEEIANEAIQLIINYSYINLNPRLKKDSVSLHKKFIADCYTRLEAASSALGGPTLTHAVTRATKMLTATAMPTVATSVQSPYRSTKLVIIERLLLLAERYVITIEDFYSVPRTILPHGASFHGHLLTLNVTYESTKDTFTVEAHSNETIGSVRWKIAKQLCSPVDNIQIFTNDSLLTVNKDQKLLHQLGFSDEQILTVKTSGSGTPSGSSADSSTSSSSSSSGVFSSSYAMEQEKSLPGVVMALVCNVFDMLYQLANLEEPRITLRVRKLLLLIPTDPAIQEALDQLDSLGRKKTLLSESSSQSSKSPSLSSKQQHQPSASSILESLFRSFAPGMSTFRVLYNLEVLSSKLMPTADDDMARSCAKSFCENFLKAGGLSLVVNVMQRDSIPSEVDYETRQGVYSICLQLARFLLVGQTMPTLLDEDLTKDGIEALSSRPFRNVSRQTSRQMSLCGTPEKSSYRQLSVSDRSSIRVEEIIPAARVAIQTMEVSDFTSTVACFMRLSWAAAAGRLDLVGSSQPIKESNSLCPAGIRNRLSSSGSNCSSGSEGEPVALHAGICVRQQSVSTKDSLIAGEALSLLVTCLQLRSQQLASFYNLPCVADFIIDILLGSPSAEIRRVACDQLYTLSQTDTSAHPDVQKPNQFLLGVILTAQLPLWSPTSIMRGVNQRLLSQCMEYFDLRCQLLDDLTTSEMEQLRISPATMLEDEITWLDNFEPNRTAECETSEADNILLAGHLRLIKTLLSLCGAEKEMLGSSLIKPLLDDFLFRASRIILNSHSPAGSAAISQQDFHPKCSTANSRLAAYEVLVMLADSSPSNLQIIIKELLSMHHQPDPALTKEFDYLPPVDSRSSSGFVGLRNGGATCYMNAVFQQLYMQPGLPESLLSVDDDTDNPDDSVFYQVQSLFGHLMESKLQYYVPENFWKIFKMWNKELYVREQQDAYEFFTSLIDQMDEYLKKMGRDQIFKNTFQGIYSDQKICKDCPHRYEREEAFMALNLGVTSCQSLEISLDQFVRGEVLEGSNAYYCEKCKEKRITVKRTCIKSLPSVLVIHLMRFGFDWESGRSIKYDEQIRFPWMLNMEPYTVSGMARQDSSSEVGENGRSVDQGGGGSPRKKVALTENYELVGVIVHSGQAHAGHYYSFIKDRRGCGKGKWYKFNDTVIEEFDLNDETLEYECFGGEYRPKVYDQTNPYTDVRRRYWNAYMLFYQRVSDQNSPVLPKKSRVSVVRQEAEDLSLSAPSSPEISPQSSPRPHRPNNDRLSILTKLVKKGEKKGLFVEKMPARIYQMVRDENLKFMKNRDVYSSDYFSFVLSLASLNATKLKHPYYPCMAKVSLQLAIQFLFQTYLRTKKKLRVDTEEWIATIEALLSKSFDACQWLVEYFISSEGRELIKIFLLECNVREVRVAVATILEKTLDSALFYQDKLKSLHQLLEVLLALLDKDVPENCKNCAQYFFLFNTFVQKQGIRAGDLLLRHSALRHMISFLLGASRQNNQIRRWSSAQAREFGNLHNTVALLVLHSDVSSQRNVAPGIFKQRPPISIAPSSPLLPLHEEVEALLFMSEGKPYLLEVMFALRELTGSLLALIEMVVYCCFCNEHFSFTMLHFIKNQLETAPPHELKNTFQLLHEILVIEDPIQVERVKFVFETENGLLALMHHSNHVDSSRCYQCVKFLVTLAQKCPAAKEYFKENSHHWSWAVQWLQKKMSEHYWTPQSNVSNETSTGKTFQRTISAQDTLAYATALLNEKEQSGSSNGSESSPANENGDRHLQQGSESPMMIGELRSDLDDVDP

T5 sequence (Q93008 whole entry): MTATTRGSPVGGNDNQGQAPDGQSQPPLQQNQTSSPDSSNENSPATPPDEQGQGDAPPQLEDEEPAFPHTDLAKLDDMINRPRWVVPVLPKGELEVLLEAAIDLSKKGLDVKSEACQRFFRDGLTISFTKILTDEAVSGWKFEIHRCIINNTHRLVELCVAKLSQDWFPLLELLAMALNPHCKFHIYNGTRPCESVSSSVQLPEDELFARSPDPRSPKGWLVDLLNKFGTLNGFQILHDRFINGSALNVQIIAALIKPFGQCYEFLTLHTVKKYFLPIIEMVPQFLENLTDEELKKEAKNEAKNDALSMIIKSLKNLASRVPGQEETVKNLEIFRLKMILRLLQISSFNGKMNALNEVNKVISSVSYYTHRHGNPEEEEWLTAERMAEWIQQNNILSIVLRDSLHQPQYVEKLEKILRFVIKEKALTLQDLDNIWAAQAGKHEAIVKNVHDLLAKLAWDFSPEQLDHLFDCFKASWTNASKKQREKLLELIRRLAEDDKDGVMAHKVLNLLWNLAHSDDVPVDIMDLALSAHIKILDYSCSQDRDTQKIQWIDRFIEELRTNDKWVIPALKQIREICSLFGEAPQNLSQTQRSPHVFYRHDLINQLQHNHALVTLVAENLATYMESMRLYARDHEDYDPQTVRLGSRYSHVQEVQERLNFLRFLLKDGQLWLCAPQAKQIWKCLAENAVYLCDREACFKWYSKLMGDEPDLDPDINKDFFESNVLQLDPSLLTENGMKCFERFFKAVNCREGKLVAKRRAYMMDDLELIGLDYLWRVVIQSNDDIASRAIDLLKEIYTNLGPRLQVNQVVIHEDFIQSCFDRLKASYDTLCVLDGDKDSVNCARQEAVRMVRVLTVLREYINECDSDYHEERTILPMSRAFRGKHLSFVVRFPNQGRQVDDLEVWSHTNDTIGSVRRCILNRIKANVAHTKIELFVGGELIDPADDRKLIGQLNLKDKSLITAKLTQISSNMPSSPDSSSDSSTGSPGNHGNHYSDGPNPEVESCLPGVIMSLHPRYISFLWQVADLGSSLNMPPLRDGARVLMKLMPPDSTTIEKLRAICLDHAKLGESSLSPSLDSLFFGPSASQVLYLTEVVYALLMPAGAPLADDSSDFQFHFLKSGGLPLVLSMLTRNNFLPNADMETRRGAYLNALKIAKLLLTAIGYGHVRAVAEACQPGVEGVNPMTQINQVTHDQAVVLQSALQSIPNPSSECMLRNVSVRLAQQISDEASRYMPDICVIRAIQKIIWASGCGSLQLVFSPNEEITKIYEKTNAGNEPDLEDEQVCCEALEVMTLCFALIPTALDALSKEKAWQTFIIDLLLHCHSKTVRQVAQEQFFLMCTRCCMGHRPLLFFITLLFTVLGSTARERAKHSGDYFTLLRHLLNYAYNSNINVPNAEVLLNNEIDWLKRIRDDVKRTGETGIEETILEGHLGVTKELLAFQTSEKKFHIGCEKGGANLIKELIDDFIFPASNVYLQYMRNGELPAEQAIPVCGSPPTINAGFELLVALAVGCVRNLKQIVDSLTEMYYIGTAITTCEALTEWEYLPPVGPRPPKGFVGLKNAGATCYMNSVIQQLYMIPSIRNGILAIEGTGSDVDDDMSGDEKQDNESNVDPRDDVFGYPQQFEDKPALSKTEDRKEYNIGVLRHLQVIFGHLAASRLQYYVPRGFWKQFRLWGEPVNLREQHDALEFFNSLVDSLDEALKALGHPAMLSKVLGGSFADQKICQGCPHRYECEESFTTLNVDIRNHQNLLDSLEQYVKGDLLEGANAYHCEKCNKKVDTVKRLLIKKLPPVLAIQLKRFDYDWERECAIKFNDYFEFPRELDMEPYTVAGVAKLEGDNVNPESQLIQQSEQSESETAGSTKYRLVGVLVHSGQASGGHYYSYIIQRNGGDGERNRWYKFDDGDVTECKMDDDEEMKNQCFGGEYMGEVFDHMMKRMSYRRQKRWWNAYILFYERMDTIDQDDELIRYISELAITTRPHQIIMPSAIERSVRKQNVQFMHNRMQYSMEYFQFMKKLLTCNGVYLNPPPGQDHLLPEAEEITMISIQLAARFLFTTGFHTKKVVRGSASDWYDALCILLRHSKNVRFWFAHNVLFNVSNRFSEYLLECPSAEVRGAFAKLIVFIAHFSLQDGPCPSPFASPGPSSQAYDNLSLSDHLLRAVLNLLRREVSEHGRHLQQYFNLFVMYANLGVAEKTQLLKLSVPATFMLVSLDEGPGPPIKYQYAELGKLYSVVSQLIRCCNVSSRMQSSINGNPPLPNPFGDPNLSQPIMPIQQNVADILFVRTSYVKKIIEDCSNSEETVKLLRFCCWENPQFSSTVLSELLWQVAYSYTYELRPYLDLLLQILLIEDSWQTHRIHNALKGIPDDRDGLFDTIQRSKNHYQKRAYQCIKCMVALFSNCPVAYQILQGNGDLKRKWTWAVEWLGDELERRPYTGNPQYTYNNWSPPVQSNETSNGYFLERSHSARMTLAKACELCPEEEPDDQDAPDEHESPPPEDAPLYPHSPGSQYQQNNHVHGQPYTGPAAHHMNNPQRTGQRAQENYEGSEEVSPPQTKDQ

On to `Nc1nc2cccc(-c3ccccc3)c2n1Cc1ccc(Cl)c(Cl)c1` [compound 3], for which the “fold changes relative to vehicle control” value in test [1] amounted to 1.24.
`NCCOCCOCC(=O)Nc1nc2ncc(CNc3ccc(C(=O)NC(CCC(=O)O)C(=O)O)cc3)nc2c(=O)[nH]1` (stereo not drawn) [compound 6]: the “fold changes relative to vehicle control” value in test [2] (HeLa, protein CTSA) amounted to 0.87; in test [3] (protein VARS, HeLa), 1; in test [4] (HeLa, captured protein ALDH1B1), 1.06; in test [5] (HeLa, captured protein USP9X), 1.31; in test [6] (protein RNPEP, HeLa) it was 0.99; in test [7] (protein USP24, HeLa) it was 1.01.
With `Nc1nc2[nH]cc(CCc3ccc(C(=O)N[C@@H](CCC(=O)O)C(=O)O)cc3)c2c(=O)[nH]1` [PTX, pemetrexed], the “fold changes relative to vehicle control” value turned out to be 0.77 in test [2]; 0.84 in test [3]; 0.93 in test [4]; 1.17 in test [5]; 0.81 in test [6]; 0.89 in test [7].
For `Nc1nc2c(c(=O)[nH]1)N(C=O)C(CNc1ccc(C(=O)N[C@@H](CCC(=O)O)C(=O)O)cc1)CN2` (stereo partly drawn) [LEU, leucovorin], the “fold changes relative to vehicle control” value in test [2] (HeLa, protein CTSA) came out at 1.01; in test [3] (protein VARS, HeLa), 0.86; in test [4] (HeLa, captured protein ALDH1B1), 1.03; in test [5] (HeLa, captured protein USP9X) it was 1.13; in test [6] (protein RNPEP, HeLa), 0.93; in test [7] (protein USP24, HeLa), 0.85.
Consider `CCCCCCOc1ccc(Cc2cnc(N)nc2N)cc1` [compound 1], for which the “fold changes relative to vehicle control” value in test [1] stood at 1.08.
For the compound `NCCCNc1ccc(C(=O)NC(CCC(=O)O)C(=O)O)cc1` (stereo not drawn) [compound 7], the “fold changes relative to vehicle control” value amounted to 1.13 in test [2] (HeLa, protein CTSA); 0.91 in test [3] (protein VARS, HeLa); 0.95 in test [4] (HeLa, captured protein ALDH1B1); 1.26 in test [5] (HeLa, captured protein USP9X); 0.74 in test [6] (protein RNPEP, HeLa); 0.84 in test [7] (protein USP24, HeLa).
As to `CCCCCCOc1cccc(Cc2cnc(N)nc2N)c1` [compound 2], in test [1], the “fold changes relative to vehicle control” value is given as 1.92.

For the origin of these results see article PMC6199744, “Development of Chemical Proteomics for the Folateome and Analysis of the Kinetoplastid Folateome” (ACS Infectious Diseases, 2018).
